Experimental data: PubChem BioAssay (NCI)
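How tested: cells in 96-well plates exposed to compound for 48 hours at five concentrations. TGI: total growth inhibition.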

How the values were obtained:
Experiment in all cases: NCI anticancer screen, dose series, 48 h
NCI/ADR-RES ovarian = system: NCI/ADR-RES ovarian
NCI-H522 lung = system: NCI-H522 lung
SR leukemia = system: SR leukemia
NCI-H23 lung = system: NCI-H23 lung
SNB-75 CNS = system: SNB-75 CNS
SK-MEL-5 melanoma = system: SK-MEL-5 melanoma
SK-OV-3 ovarian = system: SK-OV-3 ovarian
ACHN renal = system: ACHN renal
KM12 colon = system: KM12 colon
SF-268 CNS = system: SF-268 CNS
UACC-257 melanoma = system: UACC-257 melanoma
U251 CNS = system: U251 CNS

Row | Compound | TGI (NCI/ADR-RES ovarian) [µM] | TGI (NCI-H522 lung) [µM] | TGI (SR leukemia) [µM] | TGI (NCI-H23 lung) [µM] | TGI (SNB-75 CNS) [µM] | TGI (SK-MEL-5 melanoma) [µM] | TGI (SK-OV-3 ovarian) [µM] | TGI (ACHN renal) [µM] | TGI (KM12 colon) [µM] | TGI (SF-268 CNS) [µM] | TGI (UACC-257 melanoma) [µM] | TGI (U251 CNS) [µM]
1 | CCCCCC(=O)OCC(=O)[C@H]1[C@H](C)C[C@H]2[C@@H]3C[C@H](F)C4=C/C(=N/OC(=O)c5cccc6c(=O)c7ccccc7[nH]c56)C=C[C@]4(C)[C@H]3[C@@H](O)C[C@@]21C | 41.1 | 46 | 93.3 | > 100 | 69 | 27.8 | > 100 | > 100 | 27.3 | > 100 | 62 | > 100
2 | c1ccc2[nH]c3[nH]c4[nH]c5ccccc5[nH]c4[nH]c3[nH]c2c1 | > 100 | > 100 | > 100 | > 100 | 53.4 | > 100 | > 100 | > 100 | > 100 | > 100 | > 100 | > 100
3 | CN1CC2=C(NC(=S)NC2c2ccc(Cl)cc2)/C(=C/c2ccc(Cl)cc2)C1 (centres undefined) | 43.6 | 31 | 51.5 | 43.8 | 31.2 | 26.8 | 31.4 | 57.9 | 38.2 | 50.4 | 43.2 | 33.3
4 | N#CC1=C(C#N)/C(=C(\C#N)C(C#N)C#N)N=C1N | > 100 | 47.7 | 66.7 | > 100 | > 81.8 | 31.8 | > 100 | > 100 | > 100 | > 100 | 51.7 | > 100
5 | C=C(C)[C@@H]1CC[C@@H](C)[C@](O)([C@@H]2C[C@@H]([C@H](COC(=O)c3ccccc3)OC(=O)c3ccccc3)OC2=O)C1 | > 100 | > 100 | > 100 | > 100 | > 100 | > 100 | > 100 | > 100 | > 100 | > 100 | > 100 | > 100
6 | O=c1oc2ccccc2cc1-c1nnc(-c2ccccc2)s1 | > 67.2 | > 100 | > 36.8 | > 100 | 45.6 | > 100 | > 90 | > 100 | 36.2 | > 100 | > 100 | 26.4
7 | CC(=O)O[C@H]1C(=O)[C@@]2(C)[C@H]([C@H](OC(=O)c3ccc([N+](=O)[O-])cc3)[C@]3(O)C[C@H](OC(=O)[C@H](O)[C@@H](NC(=O)c4ccccc4)c4ccccc4)C(C)=C1C3(C)C)[C@]1(OC(C)=O)CO[C@@H]1C[C@@H]2O | > 25 | > 25 | > 25 | > 25 | > 25 | > 25 | > 25 | > 25 | > 25 | > 25 | > 25 | > 25
8 | COc1ccc(C2CC(=O)Oc3ccccc3O2)cc1 (centres undefined) | > 100 | 93.2 | > 100 | > 100 | > 100 | > 100 | > 100 | > 100 | > 100 | > 100 | > 100 | > 100
9 | Cc1cnc2[nH]c(-c3ccc(F)cc3)cc(=O)c2c1 | > 87.5 | 50.4 | > 61.5 | > 100 | 62.8 | > 100 | > 68 | > 100 | > 100 | > 100 | > 100 | > 91.8
10 | Cc1cc(S(=O)(=O)Nc2nc(N)nc(N3CCOCC3)n2)c(SCC(=O)O)cc1Cl | > 10 | > 10 | > 10 | > 10 | > 10 | > 10 | > 10 | > 10 | > 10 | > 10 | > 10 | > 10
11 | C/C(=N\NS(=O)(=O)c1ccc(C)cc1)C(CN(C)C)C(c1ccccc1)c1c(O)c2ccccc2oc1=O (centres undefined) | > 100 | > 100 | > 100 | > 100 | > 84.7 | > 100 | > 100 | > 100 | > 100 | > 100 | > 100 | > 100
12 | COc1ccc(OC)c(NC(=O)C(=O)Nn2c(=S)[nH]c3ccccc3c2=O)c1 | > 100 | > 100 | > 100 | > 100 | > 100 | > 100 | > 100 | > 100 | > 100 | > 100 | > 100 | > 100
